Here are results for 4 compounds from patent US8653283B2, “Anticancer agents” (The Regents of The University of California, priority 2009, dated 2014).

Data set [1] deals with T1, human migration inhibitory factor (hMIF) (Homo sapiens, UniProt P14174).
T1 construct: confirmed the presence of hMIF in the immunoprecipitated fraction of HCT-116 cell lysate; endogenous in cells; host or cells: HCT-116 cell lysate
T1 sequence (P14174 2-115 limits assumed): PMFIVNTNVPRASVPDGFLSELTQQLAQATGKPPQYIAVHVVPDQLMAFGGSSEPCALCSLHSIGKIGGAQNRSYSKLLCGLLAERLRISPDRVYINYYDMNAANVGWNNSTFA
The data set can be described thus: Anti-IAF tag immunoprecipitation, LC-MS/MS identification and Western blot. The settings on record: HCT-116 cell lysate, ~12 kDa band. In kind it is binding. An excerpt: A) Anti-IAF immunoprecipitation studies identify a ˜12 kDa band. Lane L1, L2 and L3 depict HCT116 cell lysate, an IAF dye elution (bands correspond to fragments of the anti-IAF mAb) and glycine wash, respectively. The ˜12 kDa band was identified in the glycine wash. B) Trypsin-digest LC-MS/MS analysis identified three peptides that overlapped with the hMIF protein (shown in red). C) Western blot analysis using a mouse anti-MIF mAb confirmed the presence of hMIF in the immunoprecipitated fraction of HCT-116 cell lysate, as well as in E. coli lysates bearing recombinanthMIF. Arrow denotes the position of hMIF. The upper bands arose from the mouse anti-IAF mAb used in this experiment (background).
Attention was then turned to screening for proteins that bind to the spirohexenolides. Using the affinity properties of the IAF probe 4, we deployed an anti-IAF tag immunoprecipitation protocol to isolate a 12 kDa band (Lane L3 in FIG. 9A). […] Western blot analysis (FIG. 9C) confirmed hMIF the identification of hMIF.

In data set [2] the test system is HCT-116 cells. The data set can be described thus: Cellular uptake and subcellular localization by fluorescence microscopy. In kind it is cell-based, human. The settings on record: live HCT-116 cells, 10 μM, time lapse over 24 h. Here is the method:
HCT-116 cells (ATCC CCL-247) were cultured in Dulbecco's modification of Eagle's medium (DMEM) with 4.5 g L^−1 glucose, […], and 5% heat inactivated fetal calf serum (FCS) in glass-bottom dishes. Fluorescent images were collected on a Leica (Wetzlar, Germany) DMI6000 inverted confocal microscope with a Yokogawa (Tokyo, Japan) spinning disk confocal head, Orca ER High Resolution B&W Cooled CCD camera (6.45 μm/pixel at 1×) (Hamamatsu, Sewickley, Pa.), Plan Apochromat 40×/1.25 na and 63×/1.4 na objective, and a Melles Griot (Carlsbad, Calif.) Argon/Krypton 100 mW air-cooled laser for 488, 568, and 647 nm excitations. Confocal z-stacks were acquired in all experiments. […]
Cellular uptake and localization of 1 in HCT-116 tumor cells was then evaluated using fluorescence microscopy. […] HCT-116 cells were treated with 10 μM 1 in DMEM containing 10% FCS, 100 U/mL penicillin-G, and 100 μg/mL streptomycin and analyzed by fluorescence microscopy. […] Within 6-12 h, fluorescence from 1 concentrated within vesicles surrounding the nucleus and remained in these structures (FIG. 4b). […]
The cellular uptake of localization of 1 in HCT-116 tumor cells was then evaluated using fluorescence microscopy. […] HCT-116 cells were treated with 10 μM 1 in DMEM containing 10% FCS, 100 U/mL penicillin-G and 100 μg/mL streptomycin and analyzed by fluorescence microscopy. […]

For data set [3], the system named is breast cancer cells (HeLa). The data set can be described thus: Inhibition of mitosis. The settings on record: by inhibiting the exit from anaphase. In kind it is cell-based.
Data set [4] has as its system NCI-60 human tumor cell line. Nature of the data set: NCI-60 human tumor cell line screen, multiple dose / dose-response. The format is cell-based.
Data set [5] deals with HCT-116 cells. Nature of the data set: Cell cycle effects by three-color confocal fluorescence microscopy. In kind it is cell-based, human. An excerpt: Images in a) and b) depict live cells. c) A confocal fluorescent image indicating the effects of 1 has on the cell structure. Cells treated as in a) were fixed with 0.1% formalin and stained for their DNA content with SYTO-60 (false colored in blue) (Wlodkowic et al., Cytometry A, 73:496-507 (2008)), actin with FITC-phalloidin (green) (Verderame et al., Proc Natl Acad Sci USA, 77:6624-6628 (1980)), and microtubules with BODIPY FL-paclitaxel (red) (Bicamumpaka et al., Int J Mol Med, 2:161-165 (1998)). For each experiment, HCT-116 cells were cultured to 10^6 cells/cm^2 in a 35 mm poly-D-lysine coated glass-bottom dish and treated with 1 mL of 10 μM 1 in Dulbecco's modified essential medium (DMEM) containing 10% fetal bovine serum (FBS), 100 U/mL penicillin-G and 100 μg/mL streptomycin.
The effects of 1 on the cell cycle were also evaluated. HCT-116 cells cultured in DMEM were treated 1 h before the onset of mitosis with 10 μM 1 in DMEM. After 12 h (several hours after the completion of mitosis), the cells were fixed for 5 min with 0.5% formalin and 0.1% glutaraldehyde in PBS pH 7.2, washed extensively with PBS pH 7.2, treated with a cocktail of fluorescent probes to visualize DNA, actin, and microtubules and examined using three-color confocal fluorescence microscopy. […]

Data set [6] concerns renal cancers. The data set can be described thus: NCI-60 human tumor cell line screen, single dose. The format is cell-based. The settings on record: dosed at 10 μM, single dose NCI-60.
Data set [7] deals with prostate. The data set can be described thus: NCI-60 human tumor cell line screen, single dose. In kind it is cell-based. The settings on record: dosed at 10 μM, single dose NCI-60.
Data set [8] deals with neuroblastoma cells (Neuro2a). Nature of the data set: Inhibition of mitosis. In kind it is cell-based. The settings on record: by inhibiting the exit from anaphase.
In data set [9] the test system is human colon tumor HCT-116 cell line. The settings on record: for GI50: HCT-116 cells, MTT assay, in house. (Formazan colour is commonly taken as a measure of viable cells.)
The subject of data set [10] is melanoma. The data set can be described thus: NCI-60 human tumor cell line screen, single dose. The format is cell-based. The following applies: dosed at 10 μM, single dose NCI-60.
Data set [11] concerns Bacillus subtilis 6633. Nature of the data set: Minimum inhibitory concentration (MIC) assay. In kind it is cell-based. The settings on record: Bacillus subtilis 6633, 37° C. for 18 h, no visible bacterial growth, duplicates. As to the method:
Minimum Inhibitory Concentration (MIC) Assay of Spirohexenolide A (1), using Bacillus subtilis 6633.
Spirohexenolide A (1) in dimethyl sulfoxide (DMSO) was diluted to 10, 15, 30, 60, 120, 250, 500, and 1000 μg/mL stocks in tryptic soy broth with a final concentration of 1% DMSO. B. subtilis, cultured for 18 h at 37° C. in tryptic soy broth, was inoculated at 1/10000 to a final volume of 200 μL per well on a 96 well plate and then treated with 2 μL of a stock solution of 1 (10, 15, 30, 60, 120, 250, 500, and 1000 μg/mL in tryptic soy broth containing 1% DMSO). […] The compound was tested in duplicates.

For data set [12] the following is noted: mouse, in vivo.

Turning to `CC1=C[C@]2(C)/C=C(C)/C=C/C[C@@H](OC(=O)CCC(=O)NCCCCCCNC(=O)Cc3cc(=O)oc4cc(N(C)C)ccc34)/C=C3C=C/C(=C4\C(=O)O[C@]2(C[C@@H]1C)C4=O)OC/3` [probe 4], the “protein isolated by the probe” value in [1] is “human migration inhibitory factor (hMIF)”.

Take `CC1=C[C@]2(C)/C=C(C)/C=C/C[C@@H](OC(=O)CCCn3cc(CNC(=O)Cc4cc(=O)oc5cc(N(C)C)ccc45)nn3)/C=C3C=C/C(=C4\C(=O)O[C@]2(C[C@@H]1C)C4=O)OC/3` [probe 3]: the “cell phenotype after treatment” value in data set [2] is recorded as “characteristic apoptotic phenotype”.

The inhibition is the percentage by which the read-out fell short of the control. Broadly, the IC50 is the concentration that gives 50% inhibition. The GI50 is the concentration that inhibits growth by half. Broadly, the MIC is the lowest concentration that inhibits growth of the organism. Lower therefore signals greater potency. With spirohexenolide A, the inhibition of mitosis result in data set [3] is reported as “inhibit mitosis”; in data set [5] (colon cancer cells (HCT111), by inhibiting the exit from anaphase), “inhibit mitosis”; in [8], “inhibit mitosis”. In data set [4] (leukemia (CCRF-CEM, MOLT-4, RPMI-8226), lung cancer (HOP-92), colon cancer (SW-629) cell lines), the “activity (GI50) by cell line” value is listed as “enhanced activity”. Further, the “sensitivity in dose-response assays” value in data set [4] (leukemia, renal cancer, and melanoma cell lines) is recorded as “selective sensitivity”. In data set [5] (10 μM, treated 1 h before onset of mitosis, fixed after 12 h), the “effect on the cell cycle” value is recorded as “induced cell cycle arrest during mitosis”. Moreover, the inhibition is recorded as 95% in data set [6], 85% in [7] and 96% in data set [10]. This compound displayed a half-maximal inhibitory concentration (IC50) in data set [9] of 0.5 µM. In [9], this compound came in with a GI50 of 36 ± 5.1 µM. Besides, the “cell phenotype after treatment” value in [2] is listed as “characteristic apoptotic phenotype”. In data set [11], the MIC worked out at 12.25 µM. Further, in data set [12], the “single dose producing toxicity” value fell in the range of 6 to 10 mg/kg.

In turn, spirohexenolide B displayed a GI50 in data set [9] of 61.2 ± 7.8 µM.
